Source: ChEMBL document CHEMBL4334527, “Proline-Based Allosteric Inhibitors of Zika and Dengue Virus NS2B/NS3 Proteases” (J Med Chem, 2019)
Calls of active or inactive are those of the source. No cut-off for these calls is given here.

How the values were obtained:
Zika virus [1] = assay: Antiviral activity against Zika virus French Polynesia infected in human A549 cells assessed as reduction in viral RNA at 5 uM measured after 24 to 72 hrs post infection by RT-qPCR analysis; type: functional, organism-based
Zika virus [2] = assay: Antiviral activity against Zika virus Uganda infected in human A549 cells assessed as reduction in viral RNA at 5 uM measured after 24 to 72 hrs post infection by RT-qPCR analysis; type: functional, organism-based
A549 = assay: Cytotoxicity against human A549 cells assessed as reduction in cell viability up to 5 uM by Presto blue cell viability reagent based assay
dengue virus type 2 = assay: Antiviral activity against Dengue virus 2 infected in African green monkey Vero cells assessed as suppression of viral replication at 10 uM pre-incubated with cells for 1 hr before viral infection and measured after 4 days by RT-qPCR analysis; type: functional, organism-based
Zika virus [3] = assay: Antiviral activity against Zika virus infected in African green monkey Vero cells assessed as suppression of viral replication at 10 uM pre-incubated with cells for 1 hr before viral infection and measured after 4 days by RT-qPCR analysis; type: functional, organism-based
[4] = Drug metabolism in rat liver microsomes assessed as formation of (R)-N-(5,6-Dimethoxybenzo[d]thiazol-2-yl)-1-((4-(hydroxymethyl) phenyl) sulfonyl)pyrrolidine-2-carboxamide in presence of NADPH generating system by LC-MS/MS analysis; type: ADME, Microsome
[5] = Drug metabolism in rat liver microsomes assessed as formation of (S)-N-(5,6-Dimethoxybenzo[d]thiazol-2-yl)-1-((4-(hydroxymethyl) phenyl) sulfonyl)pyrrolidine-2-carboxamide in presence of NADPH generating system by LC-MS/MS analysis; type: ADME, Microsome
[6] = Drug metabolism in rat liver microsomes assessed as formation of (S)-1-Benzoyl-N-(5,6-dihydroxybenzo[d]thiazol-2-yl)pyrrolidine-2-carboxamide in presence of NADPH generating system by LC-MS/MS analysis; type: ADME, Microsome
[7] = Drug metabolism in rat liver microsomes assessed as formation of (R)-N-(5,6-Dihydroxybenzo[d]thiazol-2-yl)-1-tosylpyrrolidine-2-carboxamide in presence of NADPH generating system by LC-MS/MS analysis; type: ADME, Microsome
[8] = Permeability in human C2BBe1 cells at 10 uM incubated for 3 hrs by LC-MS analysis relative to control; type: ADME, cell-based; settings: c2bbe1, 3 h
Nonstructural protein 3 [9] = biological target: T1, Nonstructural protein 3 (Zika virus, UniProt A0A024AXB9); assay: Inhibition of Zika virus NS2B/NS3 protease
T1 sequence (A0A024AXB9 whole entry): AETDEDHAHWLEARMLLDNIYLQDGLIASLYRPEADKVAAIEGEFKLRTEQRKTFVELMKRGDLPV

Nonstructural protein 3 [10] = biological target: T1, Nonstructural protein 3; assay: Inhibition of N-terminal hexa-histidine tagged Zika virus NS2B/NS3 protease expressed in Escherichia coli BL21-Gold (DE3) using fluorogenic AMC-substituted peptide boc-GRR-7-amino-4-methylcoumarin measured every 30 secs for 10 mins by fluorometric assay
[11] = (§1) Inhibition of N-terminal hexa-histidine tagged Dengue virus 2 NS2B/NS3 protease I30A/L31A mutant expressed in Escherichia coli BL21-Gold (DE3) using fluorogenic AMC-substituted peptide boc-GRR-7-amino-4-methylcoumarin measured every 30 secs for 10 mins by fluorometric assay; design: species or system dengue virus type 2
[12] = as §1, with “(DE3) in presence of N-benzylmaleimide” for “(DE3)”; design: species or system dengue virus type 2
[13] = as §1, with “(DE3) in presence of N-ethylmaleimide” for “(DE3)”; design: species or system dengue virus type 2
[14] = (§2) Inhibition of N-terminal hexa-histidine tagged Dengue virus 2 NS2B/NS3 protease I30A/L31A/T118C mutant expressed in Escherichia coli BL21-Gold (DE3) using fluorogenic AMC-substituted peptide boc-GRR-7-amino-4-methylcoumarin measured every 30 secs for 10 mins by fluorometric assay; design: species or system dengue virus type 2
[15] = as §2, with “(DE3) in presence of N-benzylmaleimide” for “(DE3)”; design: species or system dengue virus type 2
[16] = (§3) Inhibition of N-terminal hexa-histidine tagged Dengue virus 2 NS2B/NS3 protease I30A/L31A/T120C mutant expressed in Escherichia coli BL21-Gold (DE3) using fluorogenic AMC-substituted peptide boc-GRR-7-amino-4-methylcoumarin measured every 30 secs for 10 mins by fluorometric assay; design: species or system dengue virus type 2
[17] = as §3, with “(DE3) in presence of N-benzylmaleimide” for “(DE3)”; design: species or system dengue virus type 2
[18] = as §3, with “(DE3) in presence of N-ethylmaleimide” for “(DE3)”; design: species or system dengue virus type 2
[19] = (§4) Inhibition of N-terminal hexa-histidine tagged Dengue virus 2 NS2B/NS3 protease I30A/L31A/T122C mutant expressed in Escherichia coli BL21-Gold (DE3) using fluorogenic AMC-substituted peptide boc-GRR-7-amino-4-methylcoumarin measured every 30 secs for 10 mins by fluorometric assay; design: species or system dengue virus type 2
[20] = as §4, with “(DE3) in presence of N-benzylmaleimide” for “(DE3)”; design: species or system dengue virus type 2
[21] = as §4, with “(DE3) in presence of N-ethylmaleimide” for “(DE3)”; design: species or system dengue virus type 2
Zika virus [22] = assay: Antiviral activity against Zika virus infected in human A549 cells assessed as induction of redistribution of the ZIKV Env protein from ER to cytoplasm at 0.5 uM by confocal scanning microscopy; type: functional, organism-based

COc1cc2nc(NC(=O)[C@H]3CCCN3S(=O)(=O)c3ccc(C)cc3)sc2cc1OC
Activity (Zika virus [1]): inactive | Activity (Zika virus [2]): inactive | Activity (A549): Non-Toxic | Activity (dengue virus type 2): Active | Activity (Zika virus [3]): inactive | Drug metabolism [4]: Metabolite_Detected | Drug metabolism [5]: Metabolite_Detected | Drug metabolism [6]: Metabolite_Detected | Drug metabolism [7]: Metabolite_Detected | permeability [8]: 91%

O=C(Nc1nc2cc(O)c(O)cc2s1)c1ccccc1Oc1ccc2cc(O)ccc2c1
Activity (Zika virus [1]): inactive | Activity (Zika virus [2]): inactive | Activity (A549): Non-Toxic | IC50 (Nonstructural protein 3 [9]): 1.42 µM | IC50 (Nonstructural protein 3 [10]): 1.41 µM | IC50 [11]: 4.2 to 4.22 µM | IC50 [12]: 4.96 µM | IC50 [13]: 4.11 µM | IC50 [14]: 1 µM | IC50 [15]: 7.06 µM | IC50 [16]: 1.97 µM | IC50 [17]: 12.6 µM | IC50 [18]: 8.53 µM | IC50 [19]: 2.67 µM | IC50 [20]: 15.8 µM | IC50 [21]: 14.1 µM | Activity (Zika virus [22]): inactive | Activity (Zika virus [3]): inactive
